Measured values as given in BindingDB's records for doi:10.1046/j.1471-4159.1998.71062558.x (F. Hoffmann-La Roche, 1998).

Target: Metabotropic glutamate receptor 2 (Homo sapiens, UniProt Q14416)
Sequence (Q14416 whole entry): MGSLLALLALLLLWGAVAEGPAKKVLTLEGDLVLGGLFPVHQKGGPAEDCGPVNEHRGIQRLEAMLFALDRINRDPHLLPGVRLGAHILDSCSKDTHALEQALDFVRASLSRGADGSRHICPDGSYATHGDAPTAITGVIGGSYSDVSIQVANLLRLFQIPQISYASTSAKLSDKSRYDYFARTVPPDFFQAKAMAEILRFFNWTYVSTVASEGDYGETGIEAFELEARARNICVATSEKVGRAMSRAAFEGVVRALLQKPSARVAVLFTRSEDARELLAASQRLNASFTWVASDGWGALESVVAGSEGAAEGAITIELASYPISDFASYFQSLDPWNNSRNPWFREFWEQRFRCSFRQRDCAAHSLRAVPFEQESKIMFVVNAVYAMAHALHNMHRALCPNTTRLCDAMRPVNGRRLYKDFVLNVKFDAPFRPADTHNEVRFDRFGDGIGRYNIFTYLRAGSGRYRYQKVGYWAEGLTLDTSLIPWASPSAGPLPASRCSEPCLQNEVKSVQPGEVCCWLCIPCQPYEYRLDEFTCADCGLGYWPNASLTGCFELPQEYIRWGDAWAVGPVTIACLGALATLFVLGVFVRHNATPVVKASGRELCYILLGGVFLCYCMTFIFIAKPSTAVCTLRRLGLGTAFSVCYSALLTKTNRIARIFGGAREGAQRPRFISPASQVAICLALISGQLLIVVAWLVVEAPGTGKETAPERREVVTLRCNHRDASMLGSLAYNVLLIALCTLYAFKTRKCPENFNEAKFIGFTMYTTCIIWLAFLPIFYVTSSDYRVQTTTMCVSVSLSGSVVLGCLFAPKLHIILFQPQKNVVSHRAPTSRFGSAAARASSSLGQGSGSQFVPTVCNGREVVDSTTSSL

Row | Ki | Compound
1 | 260 nM | CC(N)(C(=O)O)c1ccc(P(=O)(O)O)cc1 (stereo unspecified)
2 | 334 nM | C[C@@](N)(C(=O)O)c1ccc(C(=O)O)cc1 (racemic)
3 | 376 nM | CCC(N)(CCC(=O)O)C(=O)O (stereo unspecified) [CAS_5311079]
4 | 0.078 nM | NC(Cn1cnc2c(=O)[nH]c(=O)[nH]c21)(C(=O)O)C1CC1C(=O)O (stereo unspecified) [CAS_5311260]
5 | 0.368 nM | N[C@H](C(=O)O)C1[C@@H](C(=O)O)[C@@H]1C(=O)O (stereo partly specified) [DCG-IV]
6 | 0.378 nM | N[C@H](C(=O)O)[C@H]1C[C@H]1C(=O)O [L-CCG-IV]
7 | 69 nM | C[C@](N)(C(=O)O)C1C[C@@H]1C(=O)O (stereo partly specified) [MCCG-I]

Row | Compound | Ki
8 | N[C@@H](CCP(=O)(O)O)C(=O)O | 680 nM
9 | N[C@@]1(C(=O)O)CC[C@H](C(=O)O)C1 [1S, 3R-ACPD] | 9.33 nM
10 | N[C@@H](Cn1oc(=O)[nH]c1=O)C(=O)O [2-amino-3-(3,5-dioxo[1,2,4]oxadiazolidin-2-yl)propionic acid] | 178 nM
11 | N[C@H](CP(=O)(O)O)C(=O)O [CAS_23052-80-4] | 263 nM
